In patent US4017622A, “Piperazine derivatives” (Dainippon Pharmaceutical Co., Ltd., priority 1972, dated 1977):

Key:
[1] = test system: Pseudomonas aeruginosa No. 12; experiment: In vivo efficacy against systemic infection with Pseudomonas aeruginosa in mice; details: NO.12, 168 h, male ddY-S mice, ip, twice, about 5 minutes and 6 hours after infection, observation 7 days
Protocol: (§1) In the Tables II and III, the ED50 and LD50 values were calculated in accordance with the Bcherns-Kaerber method [Arch. Exp. Path, Pharm., 162, 480 (1931)].
(§2) 2) In vivo efficacy against systemic infection with
(§3) Pseudomonas aeruginosa and Salmonella typhimurium
*Experimental conditions:
Organism: Pseudomonas aeruginosa No. 12
Mice: male mice (ddY-S) weighing 20 g approximately.
intraperitoneal infection with 50 to 100
LD50 (about 5 × 10^3 cells/mouse) of a
bacterial suspension in 4% gastric mucin.
twice, about 5 minutes and 6 hours after
(§4) Drug: an alkaline solution (pH 8 - 9) for intraperitoneal
(§5) ip: intraperitoneal administration.

[2] = test system: Pseudomonas aeruginosa Tsuchijima; experiment: In vitro antibacterial activity (MIC, serial dilution), Pseudomonas aeruginosa; details: nutrient broth, pH 7.0; 37° C for 48 hours
Protocol: (§6) The minimum inhibitory concentration (MIC) was
(§7) determined by the well known serial dilution method.
(§8) Medium: nutrient broth, pH 7.0 (5 ml/tube)
(§9) Inoculum: 1 drop of 1 : 10^5 dilution of an
overnight broth culture per tube

[3] = test system: Staphylococcus aureus Terajima; experiment: In vitro antibacterial activity (MIC, serial dilution), Staphylococcus aureus; details: nutrient broth, pH 7.0; 37° C for 48 hours
Protocol: as §6, §7, §8, §9
overnight broth culture per tube

Escherichia coli K-12 = experiment: In vitro antibacterial activity (MIC, serial dilution), Escherichia coli; details: nutrient broth, pH 7.0; 37° C for 48 hours
Protocol: as §6, §7, §8, §9
overnight broth culture per tube

[4] = test system: Salmonella typhimurium S-9; experiment: In vivo efficacy against systemic infection with Salmonella typhimurium in mice; details: Salmonella enterica, 336 h, male ddY-S mice, twice a day for 4 days, observation 14 days
Protocol: as §1, §2, §3
**Experimental conditions:
Organism: Salmonella typhimurium S-9
Ice: male mice (ddY-S) weighing 20 g approximately.
Intraperitoneal infection with 50 to 100
LD50 (about 10^5 cells/mouse) of a bacterial
suspension in a nutrient broth.
twice a day for 4 days from the day of
as §4
administration and suspension in 0.2% carboxymethyl
cellulose for oral administration.
as §5
po: oral administration.

Acute toxicity in mice = details: mouse, in vivo
Protocol: as §1
3) Acute toxicity in mice
Experimental conditions:
Mice: male mice (ddY-S) weighing 20 g approximately
Drug: alkaline solution (pH 8 - 9) for intravenous
administration and suspension in 0.2%
carboxymethyl cellulose for oral administration.
iv: intravenous administration.
ip: oral administration.

Compound	ED50 [1]	minimum inhibitory concentration (MIC), Pseudomonas aeruginosa Tsuchijima [2]	minimum inhibitory concentration (MIC), Staphylococcus aureus Terajima [3]	minimum inhibitory concentration (MIC), Escherichia coli K-12 (Escherichia coli K-12)	ED50 ([4]; ip)	ED50 ([4]; po)	LD50 at 168 h (Acute toxicity in mice; iv)	LD50 at 168 h (Acute toxicity in mice; po)	LD50 at 168 h (Acute toxicity in mice; male ddY-S mice, iv, observation 7 days)	LD50 at 168 h (Acute toxicity in mice; male ddY-S mice, po, observation 7 days)
CCn1cc(C(=O)O)c(=O)c2ccc(N(C)C)nc21 [compound 1249]	> 100 mg/kg	> 100	100	1						
C=Cn1cc(C(=O)O)c(=O)c2ccc(N3CCN(C)CC3)cc21 [compound 1493]	17.8 mg/kg	3	100	1	3.4 mg/kg	8.8 mg/kg	> 500 mg/kg	> 2000 mg/kg		
CCn1cc(C(=O)O)c(=O)c2ccc(N3CCN(C)CC3)cc21 [compound 1090]	91.4 mg/kg	30	30	1	9.6 mg/kg	13.6 mg/kg	> 500 mg/kg	2000 mg/kg		
C=Cn1cc(C(=O)O)c(=O)c2ccc(N3CCN(C)CC3)nc21 [compound 1276]		10	> 100	1						
C=Cn1cc(C(=O)O)c(=O)c2ccc(N3CCN(CC)CC3)cc21 [compound 1557]	19.3 mg/kg	10	30	1	5.1 mg/kg	11.5 mg/kg	354 mg/kg	> 2000 mg/kg		
CCn1cc(C(=O)O)c(=O)c2ccc(N3CCNCC3)cc21 [compound 1091]	6.3 mg/kg	10	30	1	15.5 mg/kg	~109 mg/kg	> 500 mg/kg	2000 mg/kg		
CCn1cc(C(=O)O)c(=O)c2ccc(N3CCNCC3)nc21 [compound 1214]	9.2 mg/kg	10	30	3	18.7 mg/kg	~43.8 mg/kg	> 500 mg/kg			
O=C(O)c1cn(Cc2ccccc2)c2cc(N3CCNCC3)ccc2c1=O [compound 1162]		10	30	1						
C=Cn1cc(C(=O)O)c(=O)c2ccc(N3CCNCC3)nc21 [compound 1424]	3.9 mg/kg	10	100	1	19.3 mg/kg	22.9 mg/kg	354 mg/kg	> 2000 mg/kg		
CCn1cc(C(=O)O)c(=O)c2ccc(N3CCN(C)CC3)nc21 [compound 1225]		30	100	1						
CN1CCN(c2ccc3c(=O)c(C(=O)O)cn(Cc4ccccc4)c3c2)CC1 [compound 1147]		10	> 100	1						
CCn1cc(C(=O)O)c(=O)c2cnc(N3CCCC3)nc21 [PA, 5,8-dihydro-8-ethyl-2-pyrrolidino-5-oxopyrido [2,3-d]pyrimidine-6-carboxylic acid, reference compound]	> 100 mg/kg	100	10	1					268 mg/kg	> 4000 mg/kg
CCn1cc(C(=O)O)c(=O)c2cnc(N3CCNCC3)cc21 [compound 1367]	~12.5 mg/kg	30	> 100	3	54.5 mg/kg	70.7 mg/kg				
CCn1cc(C(=O)O)c(=O)c2cnc(N3CCN(C)CC3)cc21 [compound 1317]	50 mg/kg	100	30	3	14.9 mg/kg	23.9 mg/kg	> 500 mg/kg			
